Experimental data: patent US12458634B2, “Stabilized liquid formations containing picosulfate” (Ferring B.V., priority 2016, dated 2025)

Assay: Chemical stability of sodium picosulfate liquid formulations on storage (UPLC/HPLC assay of sodium picosulfate and degradation products)
Conditions: for Effect of the anti-oxidant on rate of formation of Picosulfate Benzyl Alcohol: formulations containing sodium picosulfate, magnesium citrate and malic acid; for Effect of the anti-oxidant on initial rate of formation of Picosulfate Benzyl Alcohol, Compound RRT 1.35 and Compound RRT 1.94: formulations containing sodium carboxymethylcellulose and malic acid (Table 14)
[1] = water-insoluble antioxidants (Table 21)
[2] = water-soluble antioxidants (Table 17)

| Structure (SMILES) | Effect of the anti-oxidant on rate of formation of Picosulfate Benzyl Alcohol [1] | Effect of the anti-oxidant on rate of formation of Picosulfate Benzyl Alcohol [2] | Effect of the anti-oxidant on initial rate of formation of Picosulfate Benzyl Alcohol, Compound RRT 1.35 and Compound RRT 1.94 |
| --- | --- | --- | --- |
| COc1ccc(O)c(C(C)(C)C)c1 [BHA, butylated hydroxyanisole] | effective to reduce the rate of formation | – | – |
| Cc1cc(C(C)(C)C)c(O)c(C(C)(C)C)c1 [BHT, butylated hydroxytoluene] | effective to reduce the rate of formation | – | – |
| N[C@@H](Cc1c[nH]cn1)C(=O)O [histidine] | – | effective to reduce the rate of formation | – |
| O=S([O-])S(=O)(=O)[O-].[K+].[K+] [potassium metabisulfite] | – | – | effective to reduce the initial rate of formation |
| CCCOC(=O)c1cc(O)c(O)c(O)c1 [propyl gallate] | effective to reduce the rate of formation | – | – |
| O=S([O-])S(=O)(=O)[O-].[Na+].[Na+] [sodium metabisulfite] | – | effective to reduce the rate of formation | effective to reduce the initial rate of formation |
| Cc1c(C)c2c(c(C)c1O)CC[C@@](C)(CCC[C@H](C)CCC[C@H](C)CCCC(C)C)O2 [α-tocopherol] | effective to reduce the rate of formation | – | – |
